Results: patent US20260241012A1, “1,8-NAPHTHYRIDIN-2-ONE HETEROBIFUNCTIONAL BCL6 DEGRADERS” (Treeline Biosciences, Inc., priority 2022, published 2026)

Target: T1, N-terminal HiBiT tagged BCL6 (Homo sapiens, UniProt P41182)
T1 construct: expressed in transfected cells; host or cells: HT1080 (ATCC CCL-121), stably transduced with lentivirus pLV-UBC-N-HiBiT-BCL6-PGK-puro
Assay: HiBiT based degradation assay
Assay type: cell-based
Details: HT1080 cells expressing N-terminal HiBiT tagged BCL6, 5 hours of incubation; for Ymin (5 hr): BCL6 degradation normalized with DMSO control; for DC50: four-parameter logistic model, read-out: EC50 (5 hr)
Procedure, shortened: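 Degradation measured by luminescence from the Nano-Glo HiBiT lytic reagent (15 min, room temperature), normalized to DMSO controls and fitted to a four-parameter curve.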

Q: Which “Ymin (5 hr)” value does the source give for `CNC(=O)COc1cc2cc(Nc3nc(N4CCC(CN5[C@@H](C)CN(c6cccc7c(C8CCC(=O)NC8=O)nn(C)c67)C[C@@H]5C)CC4)ncc3Cl)cnc2n(C(C)C)c1=O` (stereo partly drawn) [Compound 197b, 2-[[6-[[5-chloro-2-[4-[[(2S,6S)-4-[3-(2,6-dioxo-3-piperidyl)-1-methyl-indazol-7-yl]-2,6-dimethyl-piperazin-1-yl]methyl]-1-piperidyl]pyrimidin-4-yl]amino]-1-isopropyl-2-oxo-1,8-naphthyridin-3-yl]oxy]-N-methyl-acetamide] here?
A: The value was “++++ (Ymin < 30%)”.

Q: What about the DC50 of the same molecule?
A: Its DC50 is 10 to 100 nM.

Q: Which “Ymin (5 hr)” value does the source give for `CNC(=O)COc1cc2cc(Nc3nc(N4CCN(CC5CCN(c6cccc7c(C8CCC(=O)NC8=O)nn(C)c67)CC5)[C@@H](C)C4)ncc3Cl)cnc2n(C(C)C)c1=O` (stereo partly drawn) [Compound 105a, 2-((6-((5-chloro-2-((3S)-4-((1-(3-(2,6-dioxopiperidin-3-yl)-1-methyl-1H-indazol-7-yl)piperidin-4-yl)methyl)-3-methylpiperazin-1-yl)pyrimidin-4-yl)amino)-1-isopropyl-2-oxo-1,2-dihydro-1,8-naphthyridin-3-yl)oxy)-N-methylacetamide] here?
A: The value was “++++ (Ymin < 30%)”.

Q: What about the DC50 of the same molecule?
A: Its DC50 is 10 to 100 nM.

Q: `CNC(=O)COc1cc2cc(Nc3nc(N4CCC(C(=O)N5CCN(c6ccc7c(C8CCC(=O)NC8=O)nn(C)c7c6)CC5)CC4)ncc3Cl)cnc2n(C(C)C)c1=O` (centres unmarked) [Compound 211, 2-[[6-[[5-chloro-2-[4-[4-[3-(2,6-dioxo-3-piperidyl)-1-methyl-indazol-6-yl]piperazine-1-carbonyl]-1-piperidyl]pyrimidin-4-yl]amino]-1-isopropyl-2-oxo-1,8-naphthyridin-3-yl]oxy]-N-methyl-acetamide] was tested. Which “Ymin (5 hr)” value did it give?
A: Its value is “+++ (30% ≤ Ymin < 50%)”.

Q: What about the DC50 of the same molecule?
A: Its DC50 is under 10 nM.

Q: `CNC(=O)COc1cc2cc(Nc3nc(N4CCN(CCC5CCN(c6ccc7c(C8CCC(=O)NC8=O)nn(C)c7c6)CC5)CC4)ncc3Cl)cnc2n(C)c1=O` (centres unmarked) [Compound 114, 2-((6-((5-chloro-2-(4-(2-(1-(3-(2,6-dioxopiperidin-3-yl)-1-methyl-1H-indazol-6-yl)piperidin-4-yl)ethyl)piperazin-1-yl)pyrimidin-4-yl)amino)-1-methyl-2-oxo-1,2-dihydro-1,8-naphthyridin-3-yl)oxy)-N-methylacetamide] was tested. Which “Ymin (5 hr)” value did it give?
A: Its value is “+++ (30% ≤ Ymin < 50%)”.

Q: And the DC50?
A: Its DC50 is under 10 nM.

Q: Which results are given for `CNC(=O)COc1cc2cc(Nc3nc(N4CCN(CC5CCN(c6cccc7c(C8CCC(=O)NC8=O)nn(C)c67)CC5)C[C@@H]4CO)ncc3Cl)cnc2n(C(C)C)c1=O` (stereo partly drawn) [Compound 155b, 2-((6-((5-chloro-2-((2R)-4-((1-(3-(2,6-dioxopiperidin-3-yl)-1-methyl-1H-indazol-7-yl)piperidin-4-yl)methyl)-2-(hydroxymethyl)piperazin-1-yl)pyrimidin-4-yl)amino)-1-isopropyl-2-oxo-1,2-dihydro-1,8-naphthyridin-3-yl)oxy)-N-methylacetamide]?
A: Ymin (5 hr): ++++ (Ymin < 30%); DC50: < 10 nM

Q: With `CNC(=O)COc1cc2cc(Nc3nc(N4CCC([C@](C)(O)C5CCN(c6ccc7c(C8CCC(=O)NC8=O)nn(C)c7c6)CC5)CC4)ncc3Cl)cnc2n(C(C)C)c1=O` (single isomer, unassigned) [Compound 201b] as the molecule, how does the “Ymin (5 hr)” value read?
A: Its value is “+++ (30% ≤ Ymin < 50%)”.

Q: What about the DC50 of the same molecule?
A: The DC50 was under 10 nM.

Q: With `CNC(=O)COc1cc2cc(Nc3cc(N4CCN(CC5CCN(c6cccc7c(C8CCC(=O)NC8=O)nn(C)c67)CC5)CC4)ncc3Cl)cnc2n(C)c1=O` (centres unmarked) [Compound 160, 2-((6-((5-chloro-2-(4-((1-(3-(2,6-dioxopiperidin-3-yl)-1-methyl-1H-indazol-7-yl)piperidin-4-yl)methyl)piperazin-1-yl)pyridin-4-yl)amino)-1-methyl-2-oxo-1,2-dihydro-1,8-naphthyridin-3-yl)oxy)-N-methylacetamide] as the molecule, how does the “Ymin (5 hr)” value read?
A: The value was “++++ (Ymin < 30%)”.

Q: What about the DC50 of the same molecule?
A: The DC50 was under 10 nM.
